Reference: patent US8415469B2, “Compounds and methods for kinase modulation, and indications therefor” (Plexxikon Inc., priority 2005, dated 2013)

Legend:
Format in all cases: biochemical
[1] = target: Brk (Homo sapiens, UniProt Q13882); assay: AlphaScreen kinase assay, Brk; conditions: read-out: IC50, activity toward kinase Brk
Outline: (§1)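 Emission from acceptor beads reports phosphorylated biotin-peptide bridging antibody-coated acceptor and streptavidin donor beads; loss of signal reflects kinase inhibition. Eight-point, threefold dilution series prepared from 20 mM DMSO stocks.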

[2] = target: Frk (Homo sapiens, UniProt P42685); assay: AlphaScreen kinase assay, Frk; conditions: read-out: IC50, activity toward kinase Frk
Outline: as §1

[3] = target: Csk (Homo sapiens, UniProt P41240); assay: AlphaScreen kinase assay, Csk; conditions: read-out: IC50, activity toward kinase Csk
Text: (§2) AlphaScreen assay was used to screen additional kinases. The assay is similarly dependent on the phosphorylation of a peptide substrate. In this assay, an antibody that recognizes phosphorylated substrate is bound to an acceptor bead. The peptide substrate is attached to biotin, which binds to a donor head that contains streptavidin. Thus phosphorylated substrate is bound by antibody and streptavidin, bringing the donor and acceptor heads into close proximity when kinase is not inhibited. The donor produces singlet oxygen which results in emission from the acceptor when they are in close proximity. Conversely, when kinase is inhibited, the donor and acceptor beads are not associated and the emission from the acceptor is reduced.
(§3) AlphaScreen assays were done using compounds dissolved in DMSO to a concentration of 20 mM. The compounds were diluted accordingly to the desired final concentrations in each sample well, using 1:3 serial dilution for a total of 8 concentration points.

[4] = target: T1, Erk2 (Homo sapiens, UniProt P28482); assay: AlphaScreen kinase assay, Erk2; conditions: read-out: IC50, activity toward kinase Erk2
T1 construct: P4227.pET15S ERK2/MEK1DD; His6 with thrombin site (N); made in house
Text: as §2, §3

[5] = target: T2, IKK beta (Homo sapiens, UniProt O14920); assay: AlphaScreen kinase assay, IKK beta; conditions: read-out: IC50, activity toward kinase IKK beta
T2 sequence (O14920 1-756): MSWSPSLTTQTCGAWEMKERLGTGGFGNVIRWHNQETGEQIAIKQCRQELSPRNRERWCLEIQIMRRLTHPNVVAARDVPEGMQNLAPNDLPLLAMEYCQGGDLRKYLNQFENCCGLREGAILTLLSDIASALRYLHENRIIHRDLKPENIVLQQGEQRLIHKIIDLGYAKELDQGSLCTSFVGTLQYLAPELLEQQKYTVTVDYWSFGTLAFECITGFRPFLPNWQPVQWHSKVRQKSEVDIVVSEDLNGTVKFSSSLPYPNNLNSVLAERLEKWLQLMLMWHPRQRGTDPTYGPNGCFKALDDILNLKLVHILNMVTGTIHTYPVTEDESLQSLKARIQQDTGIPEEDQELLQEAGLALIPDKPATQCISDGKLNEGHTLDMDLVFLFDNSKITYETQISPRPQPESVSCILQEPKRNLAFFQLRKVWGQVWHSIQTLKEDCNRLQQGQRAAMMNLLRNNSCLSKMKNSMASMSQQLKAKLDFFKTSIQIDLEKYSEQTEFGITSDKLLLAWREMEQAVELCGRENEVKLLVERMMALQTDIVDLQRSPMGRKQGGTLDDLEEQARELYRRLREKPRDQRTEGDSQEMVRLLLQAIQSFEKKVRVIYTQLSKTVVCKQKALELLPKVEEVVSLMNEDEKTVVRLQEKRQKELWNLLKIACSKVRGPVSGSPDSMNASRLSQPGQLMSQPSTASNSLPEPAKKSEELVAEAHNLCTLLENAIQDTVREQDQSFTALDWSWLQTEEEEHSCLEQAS

[6] = target: TrkA (Homo sapiens, UniProt P04629); assay: AlphaScreen kinase assay, TrkA; conditions: read-out: IC50, activity toward kinase TrkA
Text: as §2, §3

T1 sequence (P28482 with tags, fused parts or gaps): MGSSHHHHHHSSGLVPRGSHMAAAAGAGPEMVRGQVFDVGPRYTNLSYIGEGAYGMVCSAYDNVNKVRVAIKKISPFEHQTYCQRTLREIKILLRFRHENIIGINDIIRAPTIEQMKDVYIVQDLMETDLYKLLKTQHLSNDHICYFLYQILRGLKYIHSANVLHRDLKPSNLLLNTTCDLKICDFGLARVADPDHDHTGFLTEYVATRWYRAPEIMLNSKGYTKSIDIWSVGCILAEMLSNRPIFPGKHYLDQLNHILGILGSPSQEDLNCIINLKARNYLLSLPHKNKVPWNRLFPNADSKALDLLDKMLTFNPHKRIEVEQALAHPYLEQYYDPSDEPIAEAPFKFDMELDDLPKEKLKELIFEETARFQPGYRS
Chain of Frk (P42685 whole entry): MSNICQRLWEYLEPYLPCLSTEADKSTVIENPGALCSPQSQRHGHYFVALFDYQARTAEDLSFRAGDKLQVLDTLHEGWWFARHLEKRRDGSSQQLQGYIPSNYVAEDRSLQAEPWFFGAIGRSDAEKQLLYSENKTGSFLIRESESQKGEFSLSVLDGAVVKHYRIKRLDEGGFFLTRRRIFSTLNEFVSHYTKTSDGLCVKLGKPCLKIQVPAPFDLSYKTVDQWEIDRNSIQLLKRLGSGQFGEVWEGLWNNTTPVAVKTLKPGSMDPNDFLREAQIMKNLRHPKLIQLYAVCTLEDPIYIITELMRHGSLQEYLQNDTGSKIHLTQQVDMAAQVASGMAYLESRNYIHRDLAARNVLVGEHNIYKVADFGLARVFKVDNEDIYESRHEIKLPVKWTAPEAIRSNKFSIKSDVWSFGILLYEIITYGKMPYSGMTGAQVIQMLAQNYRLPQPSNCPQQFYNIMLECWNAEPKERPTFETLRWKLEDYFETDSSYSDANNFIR
Chain of Brk (Q13882 whole entry): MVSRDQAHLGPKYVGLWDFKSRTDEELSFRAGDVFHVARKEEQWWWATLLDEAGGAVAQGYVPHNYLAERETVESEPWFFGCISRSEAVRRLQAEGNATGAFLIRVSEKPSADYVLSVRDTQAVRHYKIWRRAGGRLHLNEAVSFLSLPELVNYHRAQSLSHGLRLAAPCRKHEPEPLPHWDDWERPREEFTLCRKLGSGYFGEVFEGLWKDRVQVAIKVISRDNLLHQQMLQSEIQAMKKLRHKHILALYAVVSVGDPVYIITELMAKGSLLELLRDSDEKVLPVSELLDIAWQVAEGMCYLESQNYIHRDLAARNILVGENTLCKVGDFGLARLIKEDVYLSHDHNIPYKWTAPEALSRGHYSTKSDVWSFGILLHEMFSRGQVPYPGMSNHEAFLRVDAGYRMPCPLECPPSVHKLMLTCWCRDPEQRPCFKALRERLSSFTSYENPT
Chain of TrkA (P04629 33-796): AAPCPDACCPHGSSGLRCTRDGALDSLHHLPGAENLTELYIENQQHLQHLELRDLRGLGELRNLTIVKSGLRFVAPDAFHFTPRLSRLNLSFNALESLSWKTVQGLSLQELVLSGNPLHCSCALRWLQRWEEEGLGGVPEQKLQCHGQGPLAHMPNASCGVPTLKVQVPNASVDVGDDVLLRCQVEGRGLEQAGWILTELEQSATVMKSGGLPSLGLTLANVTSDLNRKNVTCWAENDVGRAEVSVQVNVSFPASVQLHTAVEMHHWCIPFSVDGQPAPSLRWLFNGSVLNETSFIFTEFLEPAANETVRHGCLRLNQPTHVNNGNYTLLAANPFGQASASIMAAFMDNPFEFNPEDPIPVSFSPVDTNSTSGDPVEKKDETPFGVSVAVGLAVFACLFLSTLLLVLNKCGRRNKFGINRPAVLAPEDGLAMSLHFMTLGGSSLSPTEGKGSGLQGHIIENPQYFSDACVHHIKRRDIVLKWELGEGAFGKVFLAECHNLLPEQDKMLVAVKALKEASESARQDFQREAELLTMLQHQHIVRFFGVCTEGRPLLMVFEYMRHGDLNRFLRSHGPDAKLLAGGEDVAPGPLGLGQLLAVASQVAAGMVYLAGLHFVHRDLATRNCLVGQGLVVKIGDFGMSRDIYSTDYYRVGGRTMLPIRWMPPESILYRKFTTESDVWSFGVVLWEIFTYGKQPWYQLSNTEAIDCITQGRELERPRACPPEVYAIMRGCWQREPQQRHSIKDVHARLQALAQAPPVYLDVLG

IC50 [1] | IC50 [2] | IC50 [3] | IC50 [5] | Structure (SMILES) | also measured
≤ 10 µM | ≤ 10 µM |  |  | CCCCNC(=O)Nc1ccc(F)c(C(=O)c2c[nH]c3ncc(-c4cccnc4)cc23)c1F [Compound P-1318, 1-Butyl-3-[2,4-difluoro-3-(5-pyridin-3-yl-1H-pyrrolo[2,3-b]pyridine-3-carbonyl)-phenyl]-urea] | 
≤ 10 µM | ≤ 10 µM | ≤ 10 µM |  | COc1cccc(C(=O)c2c[nH]c3ncc(-c4cccc(NC(C)=O)c4)cc23)c1F [Compound P-1336, N-{3-[3-(2-Fluoro-3-methoxy-benzoyl)-1H-pyrrolo[2,3-b]pyridin-5-yl]-phenyl}-acetamide] | IC50 [4]: ≤ 10 µM
 |  |  |  | Cn1cc(C(F)(F)F)c(-c2ccc(S(=O)(=O)NCc3c[nH]c4ncccc34)s2)n1 [Compound P-0041] | IC50 [4]: ≤ 10 µM
 |  |  |  | Cc1ccc(S(=O)(=O)NCc2c[nH]c3ncccc23)cc1 [Compound P-0058] | IC50 [4]: ≤ 10 µM
≤ 10 µM | ≤ 10 µM | ≤ 10 µM | ≤ 10 µM | CCCS(=O)(=O)Nc1ccc(F)c(C(=O)c2c[nH]c3ncccc23)c1F [Compound P-0007, Propane-1-sulfonic acid [2,4-difluoro-3-(1H-pyrrolo[2,3-b]pyridine-3-carbonyl)-phenyl]-amide] | 
 |  |  | ≤ 10 µM | NC(=O)c1ccc(-c2ccnc3[nH]cc(C(=O)c4cc(F)ccc4F)c23)cc1 [Compound P-0013] | 
 |  |  | ≤ 10 µM | Fc1cc(F)cc(-c2ccnc3[nH]cc(Sc4ccccn4)c23)c1 [Compound P-0106] | 
≤ 10 µM |  | ≤ 10 µM |  | CCCS(=O)(=O)Nc1ccc(F)c(C(=O)c2c[nH]c3ncc(OC)cc23)c1F [Compound P-0806, Propane-1-sulfonic acid [2,4-difluoro-3-(5-methoxy-1H-pyrrolo[2,3-b]pyridine-3-carbonyl)-phenyl]-amide] | IC50 [6]: ≤ 10 µM
 |  | ≤ 10 µM |  | COc1cc(OC)cc(C(=O)c2c[nH]c3ncc(-c4cccc(NS(C)(=O)=O)c4)cc23)c1 [Compound P-1426, N-{3-[3-(3,5-Dimethoxy-benzoyl)-1H-pyrrolo[2,3-b]pyridin-5-yl]-phenyl}-methanesulfonamide] | IC50 [6]: ≤ 10 µM
 |  |  | ≤ 10 µM | NC(=O)c1ccc(-c2ccnc3[nH]cc(C(=O)c4ccccc4F)c23)cc1 [Compound P-0014] | 
≤ 10 µM | ≤ 10 µM | ≤ 10 µM |  | OCCOc1ccc(F)c(Cc2c[nH]c3ncc(-c4cccnc4)cc23)c1F [Compound P-1394, 2-[2,4-Difluoro-3-(5-pyridin-3-yl-1H-pyrrolo[2,3-b]pyridin-3-ylmethyl)-phenoxy]-ethanol] | 
 |  |  | ≤ 10 µM | Nc1ccnc2[nH]cc(C(=O)c3ccccc3)c12 [Compound P-0029] | 
